Experiment [1] relates to PGC-1α and GLUT4 protein expression. Description: PGC-1α and GLUT4 protein expression, Western blot. Format: cell-based, rat. The procedure:
Figure 5 Effect of Prep1(54-72) peptide on Akt phosphorylation and PGC-1α and GLUT4 protein levels (A-B) L6 control and Prep1 overexpressing cells were stimulated with Insulin (100nM) and/or C2cer (10μM) and incubated with Prep1(54-72). Protein lysates were analyzed by Western blot using antibodies for pAkt, Akt and for the beta-actin, as a loading control. (C) PGC-1α and GLUT4 protein levels were measured by using specific antibodies for these proteins and beta-actin antibody was used as loading control. Blots were detected by ECL and autoradiography. The autoradiographs are representative of four independent experiments. Asterisks denote statistically significant differences (*p<0.05; **p<0.01; ***p<0.001).
Total cell lysates were obtained and separated by SDS-PAGE. Briefly, cells were solubilized with lysis buffer containing 50mM HEPES, 150mM NaCl, 10mM EDTA, 10mM Na4P2O7, 2mM sodium orthovanadate, 50mM NaF, 1mM phenylmethylsulfonyl fluoride, 10μg/ml aprotinin, 10μg/ml leupeptin, pH 7.4, and 1% (v/v) Triton X-100. Lysates were clarified by centrifugation at 12,000g for 20 minutes at 4°C. The protein concentrations in the cell lysates were measured using a Bio-Rad DC (detergent compatible) assay. Immunoprecipitation and Western blot analysis have been performed as previously described.
Background: A western blot detects proteins with antibodies after separation by electrophoresis.

A further experiment relates to L6 cells. Description: Glycogen content in L6 cells. Format: cell-based, rat. As to conditions: for effect on insulin-stimulated glycogen synthesis: insulin 100nM, C2cer 10μM, with or without Prep1(54-72). The procedure: Figure 6 Effect of Prep1(54-72) peptide on glycogen content and 2-DG uptake L6 control and Prep1 overexpressing cells were stimulated with Insulin (100nM) and/or C2cer (10μM) and incubated with Prep1(54-72). (A) Glycogen content and (B) 2-DG uptake were measured as described in methods. Bars represent the mean ± SD of three independent experiments. Asterisks denote statistically significant differences (*p<0.05; **p<0.01; ***p<0.001).
Glycogen was isolated from L6 cells homogenized in 0.1% SDS, saturated with Na2SO4 for 30 minutes at 37°C, followed by ethanol (EtOH) precipitation. Glycogen content was determined as previously described. 2-DG uptake by the L6 cells was measured as previously reported.

For the molecule `CCCCCCCCCCCCC/C=C/[C@@H](O)[C@H](CO)NC(C)=O` [C2cer, D-erythro-Sphingosine, N-Acetyl-, reference compound], the “decrease of PGC-1α and GLUT4 protein expression” value in experiment [1] (L6 cells incubated with C2cer 10μM) is on record as “approximately 35%”. Moreover, in the experiment on L6 cells (C2cer exposure (abstract)), the “reduction of insulin-stimulated glycogen content” value is 1.3 fold. In addition, the “effect on insulin-stimulated glycogen synthesis” value with L6 cells was “negatively modulated”.
Regarding “Ac-KQAIYRHPLFPLLALLFEK-NH2 [Prep1(54-72)]”, the “effect on decreased PGC-1α and GLUT4 protein expression” value in experiment [1] (L6 cells with C2cer or Prep1 overexpression, Prep1(54-72)) is on record as “significantly reverted”. Also, the “effect on insulin-stimulated glycogen synthesis” value with L6 cells is given as “recovered the insulin response”.
